Measured values reported in PubChem BioAssay (NCI).
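How tested: cells in 96-well plates exposed to compound for 48 hours at five concentrations. GI50 marks 50% less growth. TGI is the concentration that stops growth completely.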

How the values were obtained:
Assay in all cases: inhibition of tumour cell growth, NCI panel, 48 h
[1] = test system: 786-0 renal
[2] = test system: A498 renal
[3] = test system: A549 NSCLC
[4] = test system: ACHN renal
[5] = test system: BT-549 breast
[6] = test system: CAKI-1 renal
[7] = test system: CCRF-CEM leukemia
[8] = test system: COLO 205 colon
[9] = test system: DU-145 prostate
[10] = test system: EKVX NSCLC
[11] = test system: HCC-2998 colon
[12] = test system: HCT-116 colon
[13] = test system: HCT-15 colon
[14] = test system: HL-60(TB) leukemia
[15] = test system: HOP-62 NSCLC
[16] = test system: HOP-92 NSCLC
[17] = test system: HS 578T breast
[18] = test system: HT29 colon
[19] = test system: IGROV1 ovarian
[20] = test system: K-562 leukemia
[21] = test system: KM12 colon
[22] = test system: LOX IMVI melanoma
[23] = test system: M14 melanoma
[24] = test system: MALME-3M melanoma
[25] = test system: MCF7 breast
[26] = test system: MDA-MB-231 breast
[27] = test system: MDA-MB-435
[28] = test system: MOLT-4 leukemia
[29] = test system: NCI-H226 lung
[30] = test system: NCI-H23 lung
[31] = test system: NCI-H460 lung
[32] = test system: NCI-H522 lung
[33] = test system: NCI/ADR-RES ovarian
[34] = test system: OVCAR-3 ovarian
[35] = test system: OVCAR-4 ovarian
[36] = test system: OVCAR-5 ovarian
[37] = test system: OVCAR-8 ovarian
[38] = test system: PC-3 prostate
[39] = test system: RPMI-8226 leukemia
[40] = test system: RXF 393 renal
[41] = test system: SF-268 CNS
[42] = test system: SF-295 CNS
[43] = test system: SF-539 CNS
[44] = test system: SK-MEL-2 melanoma
[45] = test system: SK-MEL-28 melanoma
[46] = test system: SK-MEL-5 melanoma
[47] = test system: SK-OV-3 ovarian
[48] = test system: SN12C renal
[49] = test system: SNB-19 CNS
[50] = test system: SNB-75 CNS
[51] = test system: SR leukemia
[52] = test system: SW-620 colon
[53] = test system: T-47D breast
[54] = test system: TK-10 renal
[55] = test system: U251 CNS
[56] = test system: UACC-257 melanoma
[57] = test system: UACC-62 melanoma
[58] = test system: UO-31 renal

CCOC(=O)C(=Cc1ccc(Br)cc1)C(=O)OCC
GI50 [1]: 2.01 µM
TGI [1]: 3.85 µM
GI50 [2]: 2.18 µM
TGI [2]: 5.14 µM
GI50 [3]: 2.28 µM
TGI [3]: 5.83 µM
GI50 [4]: 2.09 µM
TGI [4]: 4.45 µM
GI50 [5]: 1.49 µM
TGI [5]: 3.11 µM
GI50 [6]: 1.76 µM
TGI [6]: 5.59 µM
GI50 [7]: 0.838 µM
TGI [7]: 7.34 µM
GI50 [8]: 1.89 µM
TGI [8]: 3.94 µM
GI50 [9]: 1.68 µM
TGI [9]: 3.07 µM
GI50 [10]: 1.88 µM
TGI [10]: 4.64 µM
GI50 [11]: 1.91 µM
TGI [11]: 3.48 µM
GI50 [12]: 1.4 µM
TGI [12]: 2.92 µM
GI50 [13]: 1.44 µM
TGI [13]: 3.5 µM
GI50 [14]: 1.63 µM
TGI [14]: 7.53 µM
GI50 [15]: 2.78 µM
TGI [15]: 5.47 µM
GI50 [16]: 1.45 µM
TGI [16]: 4.8 µM
GI50 [17]: 4.03 µM
TGI [17]: > 19.6 µM
GI50 [18]: 2.25 µM
TGI [18]: 5.86 µM
GI50 [19]: 1.81 µM
TGI [19]: 3.94 µM
GI50 [20]: 2.49 µM
TGI [20]: > 100 µM
GI50 [21]: 1.76 µM
TGI [21]: 3.66 µM
GI50 [22]: 0.793 µM
TGI [22]: 2.24 µM
GI50 [23]: 1.8 µM
TGI [23]: 3.68 µM
GI50 [24]: 2.32 µM
TGI [24]: 5.59 µM
GI50 [25]: 1.66 µM
TGI [25]: 6.67 µM
GI50 [26]: 2.08 µM
TGI [26]: 5.37 µM
GI50 [27]: 2.16 µM
TGI [27]: 6.91 µM
GI50 [28]: 2.94 µM
TGI [28]: 20.2 µM
GI50 [29]: 1.96 µM
TGI [29]: 5.5 µM
GI50 [30]: 2.32 µM
TGI [30]: 5.7 µM
GI50 [31]: 2.37 µM
TGI [31]: 5.73 µM
GI50 [32]: 1.75 µM
TGI [32]: 4.22 µM
GI50 [33]: 2.78 µM
TGI [33]: > 20.4 µM
GI50 [34]: 1.47 µM
TGI [34]: 2.92 µM
GI50 [35]: 3.06 µM
TGI [35]: 10.4 µM
GI50 [36]: 2.66 µM
TGI [36]: 6.52 µM
GI50 [37]: 2.36 µM
TGI [37]: 6.79 µM
GI50 [38]: 1.86 µM
TGI [38]: 5.96 µM
GI50 [39]: 0.27 µM
TGI [39]: 1.32 µM
GI50 [40]: 1.15 µM
TGI [40]: 2.55 µM
GI50 [41]: 1.91 µM
TGI [41]: 3.95 µM
GI50 [42]: 2.74 µM
TGI [42]: 9.36 µM
GI50 [43]: 1.72 µM
TGI [43]: 3.13 µM
GI50 [44]: 2.02 µM
TGI [44]: 4.39 µM
GI50 [45]: 1.89 µM
TGI [45]: 3.62 µM
GI50 [46]: 1.65 µM
TGI [46]: 3.12 µM
GI50 [47]: 5.41 µM
TGI [47]: 17 µM
GI50 [48]: 2.03 µM
TGI [48]: 4.21 µM
GI50 [49]: 2.47 µM
TGI [49]: 7.55 µM
GI50 [50]: 1.59 µM
TGI [50]: 3.17 µM
GI50 [51]: 2.41 µM
TGI [51]: > 23.1 µM
GI50 [52]: 1.61 µM
TGI [52]: 3.58 µM
GI50 [53]: 2.12 µM
TGI [53]: 6 µM
GI50 [54]: 3.13 µM
TGI [54]: 8.57 µM
GI50 [55]: 1.43 µM
TGI [55]: 2.98 µM
GI50 [56]: 1.88 µM
TGI [56]: 4.15 µM
GI50 [57]: 1.39 µM
TGI [57]: 3.29 µM
GI50 [58]: 1.57 µM
TGI [58]: 3.34 µM

Cc1cc(NC(=O)CCc2ccc(N3C(N)=NC(N)=NC3(C)C)cc2)ccc1S(=O)(=O)F
GI50 [1]: 0.291 µM
TGI [1]: > 100 µM
GI50 [2]: > 23.7 µM
TGI [2]: > 100 µM
GI50 [3]: 0.151 µM
TGI [3]: > 100 µM
GI50 [4]: 26.2 µM
TGI [4]: > 100 µM
GI50 [5]: 6.53 µM
TGI [5]: > 91.9 µM
TGI [6]: > 100 µM
GI50 [7]: 0.243 µM
TGI [7]: > 100 µM
GI50 [8]: 0.358 µM
TGI [8]: > 100 µM
GI50 [9]: 2.63 µM
TGI [9]: > 100 µM
GI50 [10]: 0.884 µM
TGI [10]: > 100 µM
GI50 [11]: 0.709 µM
TGI [11]: > 100 µM
GI50 [12]: 0.62 µM
TGI [12]: > 100 µM
GI50 [13]: 4.51 µM
TGI [13]: > 100 µM
GI50 [14]: 3.45 µM
TGI [14]: > 100 µM
GI50 [15]: 20.9 µM
TGI [15]: > 100 µM
GI50 [16]: > 39 µM
TGI [16]: > 100 µM
GI50 [17]: 28.3 µM
TGI [17]: > 100 µM
GI50 [18]: < 0.0374 µM
TGI [18]: > 100 µM
TGI [19]: > 100 µM
GI50 [20]: 0.737 µM
TGI [20]: > 100 µM
GI50 [21]: 0.338 µM
TGI [21]: > 63.7 µM
GI50 [22]: 0.172 µM
TGI [22]: > 100 µM
GI50 [23]: 0.737 µM
TGI [23]: > 100 µM
GI50 [24]: > 89.4 µM
TGI [24]: > 100 µM
GI50 [25]: 0.115 µM
TGI [25]: > 25.1 µM
GI50 [26]: > 87.2 µM
TGI [26]: > 100 µM
GI50 [27]: 0.18 µM
TGI [27]: > 100 µM
GI50 [28]: 1.27 µM
TGI [28]: > 100 µM
GI50 [29]: 18.4 µM
TGI [29]: > 100 µM
GI50 [30]: 1.76 µM
TGI [30]: > 100 µM
GI50 [31]: < 0.0246 µM
TGI [31]: 36.1 µM
GI50 [32]: 3.66 µM
TGI [32]: > 100 µM
GI50 [33]: > 100 µM
TGI [33]: > 100 µM
GI50 [34]: 12.2 µM
TGI [34]: > 100 µM
GI50 [35]: 12.3 µM
TGI [35]: > 100 µM
GI50 [36]: 0.468 µM
TGI [36]: > 100 µM
GI50 [37]: 0.6 µM
TGI [37]: > 100 µM
GI50 [38]: 0.368 µM
TGI [38]: > 100 µM
GI50 [39]: 0.464 µM
TGI [39]: > 100 µM
GI50 [40]: 1.35 µM
TGI [40]: > 100 µM
GI50 [41]: 0.524 µM
TGI [41]: > 100 µM
GI50 [42]: 2.61 µM
TGI [42]: > 100 µM
GI50 [43]: 1 µM
TGI [43]: 26.4 µM
GI50 [44]: > 55.9 µM
TGI [44]: > 100 µM
GI50 [45]: > 32.6 µM
TGI [45]: > 100 µM
GI50 [46]: 0.125 µM
TGI [46]: 19.1 µM
GI50 [47]: 4.58 µM
TGI [47]: > 100 µM
GI50 [48]: 0.447 µM
TGI [48]: > 100 µM
GI50 [49]: 0.269 µM
TGI [49]: > 100 µM
GI50 [50]: 0.517 µM
TGI [50]: 80.1 µM
GI50 [51]: > 100 µM
TGI [51]: > 100 µM
GI50 [52]: 0.146 µM
TGI [52]: > 100 µM
GI50 [53]: 10.6 µM
TGI [53]: > 100 µM
GI50 [54]: 4.94 µM
TGI [54]: > 100 µM
GI50 [55]: 0.148 µM
TGI [55]: > 100 µM
GI50 [56]: 15.1 µM
TGI [56]: > 100 µM
GI50 [57]: 0.14 µM
TGI [57]: > 100 µM
GI50 [58]: > 100 µM
TGI [58]: > 100 µM
